What was measured:
[1] = system: endogenous target monocytes in human PBMC; test: PBMC ex vivo monocyte depletion flow cytometry assay (Example 200); type: cell-based; settings: with anti-cotinine antibody (SEQ ID NO: 11/12), 18-24 hours, EC50 in molar, read-out: Ex Vivo Depletion Assay pEC50 (converted)
How it was run: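 Monocyte depletion is reported as pEC50, averaged or given individually across runs, and read by flow cytometry staining CD45, CD14 and CD4 with a viability dye. Compounds, diluted four-fold over 11 points from 1 mM DMSO stocks, were combined with 30 μg/mL Fc-enhanced anti-cotinine antibody and human PBMC, then incubated 18-24 h at 37° C.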

[2] = system: CCR2 expressing cells (CD11b+Ly6c+Hi) in peripheral blood; test: In vivo depletion assay, flow cytometry of peripheral blood (Example 201); set-up: species or system human CCR2 knock-in mice (C57 background); settings: hCCR2 knock-in mice, IV 0.1 mpk compound + 10 mpk anti-cotinine antibody (SEQ ID NO: 13/14), peripheral blood at 48 hr
How it was run: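 Mice dosed with compound formulated in saline/DMSO/PBS, with anti-cotinine antibody (rabbit variable region, mouse IgG2a Fc) where required, pre-incubated 30 min at room temperature. Terminal peripheral blood RBC-lysed, Fc-blocked, stained for CD45, CD3, CD11b, Ly6C, human CCR2 and 7AAD; percent depletion of CD11b+Ly6c+Hi cells determined by flow cytometry.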

[3] = biological target: anti-cotinine antibody (SEQ ID NO: 11/12, rabbit variable region with human IgG1 Fc DE mutation); test: SPR binding of anti-cotinine antibody to ARM compounds, Biacore T200, 37° C. (Example 202); settings: SPR Biacore T200, 37° C., pH 7.4, antibody SEQ ID NO: 11/12 captured on protein A; Kd in molar
How it was run: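 Antibody captured on a protein A chip; ARM compounds injected at 100 μL/min (200 s association, 2000 s dissociation), 3-fold 5-point series from 200 nM, at 37 °C in HEPES pH 7.4 buffer with 0.005% P20 and 1% DMSO. Double-referenced sensorgrams fit 1:1 for kon, koff, Kd (koff/kon), residence time (1/koff); pKd averaged across runs.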

Compound	EC50 [1]	% Depletion of CCR2 expressing cells [2]	pKd of Antibody for ARM Compound of Formula (I) [3]
CC(C)N(C)[C@@H]1CC[C@H](N2CC[C@H](Nc3ncnc4ccc(C(F)(F)F)cc34)C2=O)[C@H](NC(=O)[C@H]2C[C@@H](NC(=O)CCOC[C@H]3CC[C@H](COCCNC(=O)[C@H]4CC(=O)N(C)[C@@H]4c4cccnc4)CC3)C2)C1 [Example 55, (2S,3S)-N-(2-(((1S,4S)-4-((3-(((1S,3S)-3-(((1R,2S,5R)-5-(Isopropyl(methyl)amino)-2-((S)-2-oxo-3-((6-(trifluoromethyl)quinazolin-4-yl)amino)pyrrolidin-1-yl)cyclohexyl)carbamoyl)cyclobutyl)amino)-3-oxopropoxy)methyl)cyclohexyl)methoxy)ethyl)-1-methyl-5-oxo-2-(pyridin-3-yl)pyrrolidine-3-carboxamide]	126 pM	76.2%	9.4085
CC(C)N(C)[C@@H]1CC[C@H](N2CC[C@H](Nc3ncnc4ccc(C(F)(F)F)cc34)C2=O)[C@H](NC(=O)[C@H]2CC[C@@H](NC(=O)CCCOC[C@H]3CC[C@@H](COCCNC(=O)[C@H]4CC(=O)N(C)[C@@H]4c4cccnc4)CC3)CC2)C1 [Example 61, (2S,3S)-N-(2-(((1S,4R)-4-((4-(((1S,4S)-4-(((1R,2S,5R)-5-(Isopropyl(methyl)amino)-2-((S)-2-oxo-3-((6-(trifluoromethyl)quinazolin-4-yl)amino)pyrrolidin-1-yl)cyclohexyl)carbamoyl)cyclohexyl)amino)-4-oxobutoxy)methyl)cyclohexyl)methoxy)ethyl)-1-methyl-5-oxo-2-(pyridin-3-yl)pyrrolidine-3-carboxamide]	316 pM	92%	9.558
CC(C)N(C)[C@@H]1CC[C@H](N2CC[C@H](Nc3ncnc4ccc(C(F)(F)F)cc34)C2=O)[C@H](NC(=O)COCCNC(=O)CNC(=O)CCOCCOCCNC(=O)[C@H]2CC(=O)N(C)[C@@H]2c2cccnc2)C1 [Example 80, (2S,3S)-N-(1-(((1R,2S,5R)-5-(Isopropyl(methyl)amino)-2-((S)-2-oxo-3-((6-(trifluoromethyl)quinazolin-4-yl)amino)pyrrolidin-1-yl)cyclohexyl)amino)-1,7,10-trioxo-3,13,16-trioxa-6,9-diazaoctadecan-18-yl)-1-methyl-5-oxo-2-(pyridin-3-yl)pyrrolidine-3-carboxamide]	3980 pM	89%	9.109
CC(C)N(C)[C@@H]1CC[C@H](N2CC[C@H](Nc3ncnc4ccc(C(F)(F)F)cc34)C2=O)[C@H](Nc2c(NCCOCCOCCOCCOCCOCCNC(=O)[C@H]3CC(=O)N(C)[C@@H]3c3cccnc3)c(=O)c2=O)C1 [Example 85, (2S,3S)-N-(17-((2-(((1R,2S,5R)-5-(Isopropyl(methyl)amino)-2-((S)-2-oxo-3-((6-(trifluoromethyl)quinazolin-4-yl)amino)pyrrolidin-1-yl)cyclohexyl)amino)-3,4-dioxocyclobut-1-en-1-yl)amino)-3,6,9,12,15-pentaoxaheptadecyl)-1-methyl-5-oxo-2-(pyridin-3-yl)pyrrolidine-3-carboxamide]	2000 pM	57%	9.6885
CC(C)N(C)[C@@H]1CC[C@H](N2CC[C@H](Nc3ncnc4ccc(C(F)(F)F)cc34)C2=O)[C@H](NC(=O)[C@H]2CC[C@@H](NC(=O)CCOCCNC(=O)COCCNC(=O)[C@H]3CC(=O)N(C)[C@@H]3c3cccnc3)CC2)C1 [Example 98, (2S,3S)-N-(2-(2-((2-(3-(((1S,4s)-4-(((1R,2S,5R)-5-(Isopropyl(methyl)amino)-2-((S)-2-oxo-3-((6-(trifluoromethyl)quinazolin-4-yl)amino)pyrrolidin-1-yl)cyclohexyl)carbamoyl)cyclohexyl)amino)-3-oxopropoxy)ethyl)amino)-2-oxoethoxy)ethyl)-1-methyl-5-oxo-2-(pyridin-3-yl)pyrrolidine-3-carboxamide]	398 pM	88%	9.0095
CC(C)N(C)[C@@H]1CC[C@H](N2CC[C@H](Nc3ncnc4ccc(C(F)(F)F)cc34)C2=O)[C@H](NC(=O)CCOCCNC(=O)[C@H]2CC[C@H](NC(=O)COCCNC(=O)[C@H]3CC(=O)N(C)[C@@H]3c3cccnc3)CC2)C1 [Example 108, (2S,3S)-N-(2-(2-(((1R,4S)-4-((2-(3-(((1R,2S,5R)-5-(Isopropyl(methyl)amino)-2-((S)-2-oxo-3-((6-(trifluoromethyl)quinazolin-4-yl)amino)pyrrolidin-1-yl)cyclohexyl)amino)-3-oxopropoxy)ethyl)carbamoyl)cyclohexyl)amino)-2-oxoethoxy)ethyl)-1-methyl-5-oxo-2-(pyridin-3-yl)pyrrolidine-3-carboxamide]	398 pM	93%	8.9855
CC(C)N(C)[C@@H]1CC[C@H](N2CC[C@H](Nc3ncnc4ccc(C(F)(F)F)cc34)C2=O)[C@H](NC(=O)CCOCCOCCNC(=O)NCCOCCOCCNC(=O)[C@H]2CC(=O)N(C)[C@@H]2c2cccnc2)C1 [Example 119, (2S,3S)-N-(20-(((1R,2S,5R)-5-(Isopropyl(methyl)amino)-2-((S)-2-oxo-3-((6-(trifluoromethyl)quinazolin-4-yl)amino)pyrrolidin-1-yl)cyclohexyl)amino)-10,20-dioxo-3,6,14,17-tetraoxa-9,11-diazaicosyl)-1-methyl-5-oxo-2-(pyridin-3-yl)pyrrolidine-3-carboxamide]	1580 pM	77%	9.1735
CC(C)N(C)[C@@H]1CC[C@H](N2CC[C@H](Nc3ncnc4ccc(C(F)(F)F)cc34)C2=O)[C@H](NC(=O)[C@H]2CC[C@H](NC(=O)CCCOCCCCOCCNC(=O)[C@H]3CC(=O)N(C)[C@@H]3c3cccnc3)CC2)C1 [Example 121, (2S,3S)-N-(2-(4-(4-(((1R,4r)-4-(((1R,2S,5R)-5-(Isopropyl(methyl)amino)-2-((S)-2-oxo-3-((6-(trifluoromethyl)quinazolin-4-yl)amino)pyrrolidin-1-yl)cyclohexyl)carbamoyl)cyclohexyl)amino)-4-oxobutoxy)butoxy)ethyl)-1-methyl-5-oxo-2-(pyridin-3-yl)pyrrolidine-3-carboxamide]	1260 pM	69%	9.332
CC(C)N(C)[C@@H]1CC[C@H](N2CC[C@H](Nc3ncnc4ccc(C(F)(F)F)cc34)C2=O)[C@H](NC(=O)CCNC2CCC3(CC2)CCN(CCCNC(=O)[C@H]2CC(=O)N(C)[C@@H]2c2cccnc2)CC3)C1 [Example 138, (2S,3S)-N-(3-(9-((3-(((1R,2S,5R)-5-(Isopropyl(methyl)amino)-2-((S)-2-oxo-3-((6-(trifluoromethyl)quinazolin-4-yl)amino)pyrrolidin-1-yl)cyclohexyl)amino)-3-oxopropyl)amino)-3-azaspiro[5.5]undecan-3-yl)propyl)-1-methyl-5-oxo-2-(pyridin-3-yl)pyrrolidine-3-carboxamide]	158 pM	74.67%	9.0865
CC(C)N(C)[C@@H]1CC[C@H](N2CC[C@H](Nc3ncnc4ccc(C(F)(F)F)cc34)C2=O)[C@H](NC(=O)[C@H]2CC[C@@H](NC(=O)COCCNC(=O)CCOCCNC(=O)[C@H]3CC(=O)N(C)[C@@H]3c3cccnc3)CC2)C1 [Example 152, (2S,3S)-N-(2-(3-((2-(2-(((1S,4s)-4-(((1R,2S,5R)-5-(Isopropyl(methyl)amino)-2-((S)-2-oxo-3-((6-(trifluoromethyl)quinazolin-4-yl)amino)pyrrolidin-1-yl)cyclohexyl)carbamoyl)cyclohexyl)amino)-2-oxoethoxy)ethyl)amino)-3-oxopropoxy)ethyl)-1-methyl-5-oxo-2-(pyridin-3-yl)pyrrolidine-3-carboxamide]	1260 pM	82%	9.111
CC(C)N(C)[C@@H]1CC[C@H](N2CC[C@H](Nc3ncnc4ccc(C(F)(F)F)cc34)C2=O)[C@H](NC(=O)C2CCN(C3CCN(C(=O)CCCCCCCCCNC(=O)[C@@H]4CC(=O)N(C)[C@H]4c4cccnc4)CC3)CC2)C1 [Example 157, N-((1R,2S,5R)-5-(Isopropyl(methyl)amino)-2-((S)-2-oxo-3-((6-(trifluoromethyl)quinazolin-4-yl)amino)pyrrolidin-1-yl)cyclohexyl)-1′-(10-((2R,3R)-1-methyl-5-oxo-2-(pyridin-3-yl)pyrrolidine-3-carboxamido)decanoyl)-[1,4′-bipiperidine]-4-carboxamide]	631 pM	79%	10.135

Source: patent publication US12521393B2, “Cytotoxicity targeting chimeras for CCR2-expressing cells” (GLAXOSMITHKLINE INTELLECTUAL PROPERTY DEVELOPMENT LIMITED, priority 2021, dated 2026)
